Assay results from ChEMBL document CHEMBL3102804, “Synthesis, anticancer activity and DNA-binding properties of novel 4-pyrazolyl-1,8-naphthalimide derivatives” (Bioorg Med Chem Lett, 2014).
Activity calls are given as the source filed them. The calls are words filed in the database; no cut-off is given here.

Key:
[1] = system: MCF7; assay: Cytotoxicity against human MCF7 cells assessed as cell viability after 48 hrs by MTT assay; type: functional, cell-based; conditions: MCF7, 48 h
[2] = system: A549; assay: Cytotoxicity against human A549 cells assessed as cell viability after 48 hrs by MTT assay; type: functional, cell-based; conditions: A549, 48 h
[3] = system: HeLa; assay: Cytotoxicity against human HeLa cells assessed as cell viability after 48 hrs by MTT assay; type: functional, cell-based
[4] = system: A549; assay: Potency index, ratio of amonafide IC50 to compound IC50 for human A549 cells; type: functional
[5] = system: DNA; assay: Binding affinity to calf thymus DNA assessed as hypochromicity/bathochromic shift after 120 mins by UV-vis absorption spectra analysis; type: nucleic-acid assay; conditions: Bos taurus
[6] = system: DNA; assay: Binding affinity to calf thymus DNA assessed as change in melting temperature at 5 uM by UV spectrophotometric analysis; type: nucleic-acid assay; conditions: Bos taurus
[7] = system: DNA; assay: Binding affinity to calf thymus DNA assessed as melting temperature at 5 uM by UV spectrophotometric analysis (reference value: 59.7 degC); type: nucleic-acid assay; conditions: Bos taurus
[8] = system: DNA; assay: Binding affinity to calf thymus DNA by fluorescent spectra analysis; type: nucleic-acid assay; conditions: Bos taurus
[9] = system: DNA; assay: Binding affinity to calf thymus DNA at compound to DNA ratio >= 2 by CD spectra analysis; type: nucleic-acid assay; conditions: Bos taurus
[10] = system: MCF7; assay: Potency index, ratio of amonafide IC50 to compound IC50 for human MCF7 cells; type: functional
[11] = system: DNA; assay: Binding affinity to calf thymus DNA at compound to DNA ratio 0.1 to 0.5 by CD spectra analysis; type: nucleic-acid assay; conditions: Bos taurus
[12] = system: HeLa; assay: Potency index, ratio of amonafide IC50 to compound IC50 for human HeLa cells; type: functional

Compound | IC50 [1] [µM] | IC50 [2] [µM] | IC50 [3] [µM] | other results
CN(C)CCN1C(=O)c2cccc3c(-n4cc(-c5ccccc5)cn4)ccc(c23)C1=O | 1.58 | 8.52 | 6.5 | –
COc1ccc(-c2cnn(-c3ccc4c5c(cccc35)C(=O)N(CCN(C)C)C4=O)c2)cc1 | 2.62 | 7.69 | 4.99 | –
CN(C)CCN1C(=O)c2cccc3cc(N)cc(c23)C1=O [AMONAFIDE] | – | – | 6.71 | –
CN(C)CCN1C(=O)c2cccc3c(-n4cc(-c5ccc(F)cc5)cn4)ccc(c23)C1=O | 1.56 | 24 | 3.1 | –
CN(C)CCN1C(=O)c2cccc3c(-n4cc(-c5ccc(Br)cc5)cn4)ccc(c23)C1=O | 10.7 | > 50 | 3.47 | –
Cc1ccc(-c2cnn(-c3ccc4c5c(cccc35)C(=O)N(CCN(C)C)C4=O)c2)cc1 | 17 | 5.09 | 4.6 | Ratio IC50 [4]: 2.6
CN(C)CCN1C(=O)c2cccc3c(-n4cccn4)ccc(c23)C1=O | 2.72 | > 50 | 9.47 | –
COc1cccc(-c2cnn(-c3ccc4c5c(cccc35)C(=O)N(CCN(C)C)C4=O)c2)c1 | 1.99 | 12 | 14.6 | –
COc1ccc(-c2cnn(-c3ccc4c5c(cccc35)C(=O)N(CCN(C)C)C4=O)c2)cc1OC | 0.79 | 11.8 | 3.5 | –
CN(C)CCN1C(=O)c2cccc3c(-n4cc(-c5ccc(C(F)(F)F)cc5)cn4)ccc(c23)C1=O | 4.26 | 25 | 13.3 | –
CN(C)CCN1C(=O)c2cccc3c(-n4cc(-c5ccc(Cl)cc5)cn4)ccc(c23)C1=O | 4.24 | 17.2 | 10.6 | –
COc1cc(-c2cnn(-c3ccc4c5c(cccc35)C(=O)N(CCN(C)C)C4=O)c2)cc(OC)c1OC | 0.51 | 5.14 | 3.09 | Kb [5]: 1.01 ×10⁴ /M; ΔTm [6]: 1.8 °C; Tm [7]: 61.5 °C; Kbapp [8]: 1.04 ×10⁴ /M; Activity [9]: Active; Ratio IC50 [10]: 3.3; Activity [11]: Active; Ratio IC50 [12]: 2.2; Ratio IC50 [4]: 2.5
CN(C)CCN1C(=O)c2cccc3c(-n4cc(-c5cc(C(F)(F)F)cc(C(F)(F)F)c5)cn4)ccc(c23)C1=O | 3.39 | 25.4 | 16.6 | –
